Laboratory results: ChEMBL document CHEMBL5500383, “Recent advances and future directions on small molecule VEGFR inhibitors in oncological conditions” (Eur J Med Chem, 2024)
One block for each molecule: values may come before it.

Experiments:
[1] = molecular target: T1, Vascular endothelial growth factor receptor 2 (Homo sapiens, UniProt P35968); assay: Inhibition of VEGFR2 (unknown origin)
HepG2 [2] = assay: Antiproliferative activity against human HepG2 cells assessed as cell growth inhibition incubated for 24 hrs by MTT assay; assay type: functional, cell-based; details: HepG2, 24 h
PC-3 [3] = assay: Antiproliferative activity against human PC-3 cells assessed as cell growth inhibition incubated for 24 hrs by MTT assay; assay type: functional, cell-based; details: PC-3, 24 h
HepG2 [4] = assay: Antiproliferative activity against human HepG2 cells assessed as reduction in cell growth; assay type: functional, cell-based
Caco-2 = assay: Antiproliferative activity against human Caco-2 cells assessed as reduction in cell growth; assay type: functional, cell-based
MCF7 [5] = assay: Antiproliferative activity against human MCF7 cells assessed as inhibition of cell growth; assay type: functional, cell-based
PC-3 [6] = assay: Antiproliferative activity against human PC-3 cells assessed as inhibition of cell growth; assay type: functional, cell-based
[7] = molecular target: Serine/threonine-protein kinase pim-1 (Homo sapiens, UniProt P11309); assay: Inhibition of PIM-1 (unknown origin)
MCF7 [8] = assay: Antiproliferative activity against human MCF7 cells assessed as reduction in cell viability; assay type: functional, cell-based
[9] = molecular target: T1, Vascular endothelial growth factor receptor 2; assay: Inhibition of human VEGFR2 by discoverX kinome scan assay
HepG2 [10] = assay: Antiproliferative activity against human HepG2 cells assessed as reduction in cell growth by MTT assay; assay type: functional, cell-based
HCT-116 [11] = assay: Antiproliferative activity against human HCT-116 cells assessed as reduction in cell growth by MTT assay; assay type: functional, cell-based
MCF7 [12] = assay: Antiproliferative activity against human MCF7 cells assessed as reduction in cell growth by MTT assay; assay type: functional, cell-based
HCT-116 [13] = assay: Cytotoxicity against human HCT-116 cells assessed as reduction in cell viability by SRB assay; assay type: functional, cell-based
HepG2 [14] = assay: Cytotoxicity against human HepG2 cells assessed as reduction in cell viability by SRB assay; assay type: functional, cell-based
MCF7 [15] = assay: Cytotoxicity against human MCF7 cells assessed as reduction in cell viability by SRB assay; assay type: functional, cell-based
MCF7 [16] = assay: Cytotoxicity against human MCF7 cells assessed as reduction in cell viability; assay type: functional, cell-based
[17] = molecular target: Serine/threonine-protein kinase B-raf (Homo sapiens, UniProt P15056); assay: Inhibition of wild type BRAF (unknown origin)
[18] = molecular target: Serine/threonine-protein kinase B-raf (Homo sapiens, UniProt P15056, V600E); assay: Inhibition of BRAF V600E mutant (unknown origin)
[19] = molecular target: RAF proto-oncogene serine/threonine-protein kinase (Homo sapiens, UniProt P04049); assay: Inhibition of C-RAF (unknown origin)
A549 = assay: Antiproliferative activity against human A549 cells; assay type: functional, cell-based
PC-3 [20] = assay: Antiproliferative activity against human PC-3 cells; assay type: functional, cell-based
HepG2 [21] = assay: Antiproliferative activity against human HepG2 cells assessed as reduction in cell growth after 72 hrs by MTT assay; assay type: functional, cell-based; details: HepG2, 72 h
HCT-116 [22] = assay: Antiproliferative activity against human HCT-116 cells assessed as reduction in cell viability measured after 72 hrs by MTT assay; assay type: functional, cell-based; details: HCT-116, 72 h
A-375 = assay: Antiproliferative activity against human A-375 cells assessed as reduction in cell viability measured after 72 hrs by MTT assay; assay type: functional, cell-based; details: A-375, 72 h
MCF7 [23] = assay: Antiproliferative activity against human MCF7 cells assessed as reduction in cell viability measured after 72 hrs by MTT assay; assay type: functional, cell-based; details: MCF7, 72 h
MIA PaCa-2 = assay: Antiproliferative activity against human MIA PaCa-2 cells assessed as inhibition of cell growth incubated for 48 hrs by MTS assay; assay type: functional, cell-based; details: MIA PaCa-2, 48 h
[24] = Inhibition of VEGFR (unknown origin); design: species or system Homo sapiens
PC-3 [25] = assay: Cytotoxicity against human PC-3 cells assessed as reduction in cell viability incubated for 72 hrs by MTT assay; assay type: functional, cell-based; details: PC-3, 72 h
DU-145 = assay: Cytotoxicity against human DU-145 cells assessed as reduction in cell viability incubated for 72 hrs by MTT assay; assay type: functional, cell-based; details: DU-145, 72 h
MDA-MB-435 = assay: Cytotoxicity against human MDA-MB-435 cells assessed as reduction in cell growth measured for 72 hrs by MTT assay; assay type: functional, cell-based; details: MDA-MB-435, 72 h
PC-9 = assay: Growth inhibition of human PC-9 cells; assay type: functional
HCC827 = assay: Growth inhibition of human HCC827 cells; assay type: functional
[26] = molecular target: Hepatocyte growth factor receptor (Homo sapiens, UniProt P08581); assay: Inhibition of c-Met (unknown origin)
MHCC97H = assay: Antiproliferative activity against human MHCC97H cells assessed as reduction in cell viability incubated for 48 hrs by CCK-8 assay; assay type: functional, cell-based
[27] = Cytotoxicity against human HUVEC cells assessed as reduction in cell viability by CCK-8 assay; assay type: toxicity, cell-based
[28] = molecular target: T1, Vascular endothelial growth factor receptor 2; assay: Inhibition of human VEGFR-2 by ELISA method
HCT-116 [29] = assay: Antiproliferative activity against human HCT-116 cells assessed as reduction in cell growth incubated for 24 hrs by MTT assay; assay type: functional, cell-based; details: HCT-116, 24 h
HepG2 [30] = assay: Antiproliferative activity against human HepG2 cells assessed as inhibition of cell growth incubated for 24 hrs by MTT assay; assay type: functional, cell-based; details: HepG2, 24 h
MCF7 [31] = assay: Antiproliferative activity against human MCF7 cells assessed as inhibition of cell growth incubated for 24 hrs by MTT assay; assay type: functional, cell-based; details: MCF7, 24 h
HCT-116 [32] = assay: Antiproliferative activity against human HCT-116 cells assessed as inhibition of cell growth incubated for 24 hrs by MTT assay; assay type: functional, cell-based; details: HCT-116, 24 h
MCF7 [33] = assay: Cytotoxicity against human MCF7 cells assessed as reduction in cell growth incubated for 48 hrs by MTT assay; assay type: functional, cell-based; details: MCF7, 48 h
HepG2 [34] = assay: Cytotoxicity against human HepG2 cells assessed as reduction in cell viability incubated for 72 hrs by MTT assay; assay type: functional, cell-based; details: HepG2, 72 h
HCT-116 [35] = assay: Cytotoxicity against human HCT-116 cells assessed as reduction in cell viability incubated for 72 hrs by MTT assay; assay type: functional, cell-based; details: HCT-116, 72 h
MCF7 [36] = assay: Cytotoxicity against human MCF7 cells assessed as reduction in cell viability incubated for 72 hrs by MTT assay; assay type: functional, cell-based; details: MCF7, 72 h

T1 sequence (P35968 whole entry): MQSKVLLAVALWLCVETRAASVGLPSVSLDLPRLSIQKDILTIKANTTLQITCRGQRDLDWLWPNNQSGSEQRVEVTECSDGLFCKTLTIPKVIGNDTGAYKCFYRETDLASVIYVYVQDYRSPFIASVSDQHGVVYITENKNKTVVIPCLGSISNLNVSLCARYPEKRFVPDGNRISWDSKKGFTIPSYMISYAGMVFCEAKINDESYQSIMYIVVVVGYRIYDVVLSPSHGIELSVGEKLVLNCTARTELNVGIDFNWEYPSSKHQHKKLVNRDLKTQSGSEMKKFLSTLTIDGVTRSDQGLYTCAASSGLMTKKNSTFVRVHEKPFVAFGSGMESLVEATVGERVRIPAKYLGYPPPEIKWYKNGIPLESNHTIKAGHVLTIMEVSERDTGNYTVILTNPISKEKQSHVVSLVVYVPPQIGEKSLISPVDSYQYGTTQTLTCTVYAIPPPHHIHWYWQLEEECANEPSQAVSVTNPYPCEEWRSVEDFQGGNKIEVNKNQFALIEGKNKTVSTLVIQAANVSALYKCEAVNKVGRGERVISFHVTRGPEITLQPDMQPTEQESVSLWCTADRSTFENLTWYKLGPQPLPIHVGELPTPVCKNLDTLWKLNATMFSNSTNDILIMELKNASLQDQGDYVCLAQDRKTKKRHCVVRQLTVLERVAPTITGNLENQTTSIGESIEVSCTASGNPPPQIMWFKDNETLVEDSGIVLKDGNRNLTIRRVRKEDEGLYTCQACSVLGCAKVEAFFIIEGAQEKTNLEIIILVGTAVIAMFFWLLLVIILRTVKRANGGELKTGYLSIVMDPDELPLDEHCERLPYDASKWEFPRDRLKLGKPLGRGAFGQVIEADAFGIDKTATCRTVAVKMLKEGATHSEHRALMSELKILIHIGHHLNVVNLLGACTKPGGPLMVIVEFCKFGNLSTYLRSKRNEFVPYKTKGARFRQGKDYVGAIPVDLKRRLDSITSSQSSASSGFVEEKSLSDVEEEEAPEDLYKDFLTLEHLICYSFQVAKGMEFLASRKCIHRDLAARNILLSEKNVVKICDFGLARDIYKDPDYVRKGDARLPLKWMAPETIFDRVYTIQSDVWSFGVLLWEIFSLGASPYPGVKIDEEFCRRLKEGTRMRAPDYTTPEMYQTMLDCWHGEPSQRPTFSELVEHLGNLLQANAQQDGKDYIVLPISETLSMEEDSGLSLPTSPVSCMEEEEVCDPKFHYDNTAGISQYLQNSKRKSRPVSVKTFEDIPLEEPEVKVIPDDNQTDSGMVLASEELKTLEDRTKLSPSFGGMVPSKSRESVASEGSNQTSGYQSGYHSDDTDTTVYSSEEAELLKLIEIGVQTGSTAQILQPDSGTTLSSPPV
Serine/threonine-protein kinase B-raf (Homo sapiens, UniProt P15056, V600E), sequence (P15056 2-766 V600E limits assumed): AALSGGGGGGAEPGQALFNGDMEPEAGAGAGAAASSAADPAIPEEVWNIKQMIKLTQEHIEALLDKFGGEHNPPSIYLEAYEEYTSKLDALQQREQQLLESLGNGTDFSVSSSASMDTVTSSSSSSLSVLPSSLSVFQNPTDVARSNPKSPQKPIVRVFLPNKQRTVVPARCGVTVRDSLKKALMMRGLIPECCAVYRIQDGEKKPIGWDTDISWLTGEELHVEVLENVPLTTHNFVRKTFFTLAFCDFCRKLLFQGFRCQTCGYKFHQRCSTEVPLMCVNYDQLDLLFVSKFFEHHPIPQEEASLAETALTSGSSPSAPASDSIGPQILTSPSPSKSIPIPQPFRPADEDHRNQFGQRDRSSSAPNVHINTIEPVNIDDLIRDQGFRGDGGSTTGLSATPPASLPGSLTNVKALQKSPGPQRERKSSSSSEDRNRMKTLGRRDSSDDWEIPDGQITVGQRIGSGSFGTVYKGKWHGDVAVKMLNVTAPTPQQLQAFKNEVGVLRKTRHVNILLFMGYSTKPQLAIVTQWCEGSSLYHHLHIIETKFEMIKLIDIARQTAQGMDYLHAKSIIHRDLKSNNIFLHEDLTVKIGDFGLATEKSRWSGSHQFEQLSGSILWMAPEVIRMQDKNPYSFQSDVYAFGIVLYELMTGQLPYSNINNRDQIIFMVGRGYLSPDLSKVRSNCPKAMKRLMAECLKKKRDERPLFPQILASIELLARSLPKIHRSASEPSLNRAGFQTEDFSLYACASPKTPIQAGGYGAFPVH
Serine/threonine-protein kinase pim-1, sequence (P11309 whole entry): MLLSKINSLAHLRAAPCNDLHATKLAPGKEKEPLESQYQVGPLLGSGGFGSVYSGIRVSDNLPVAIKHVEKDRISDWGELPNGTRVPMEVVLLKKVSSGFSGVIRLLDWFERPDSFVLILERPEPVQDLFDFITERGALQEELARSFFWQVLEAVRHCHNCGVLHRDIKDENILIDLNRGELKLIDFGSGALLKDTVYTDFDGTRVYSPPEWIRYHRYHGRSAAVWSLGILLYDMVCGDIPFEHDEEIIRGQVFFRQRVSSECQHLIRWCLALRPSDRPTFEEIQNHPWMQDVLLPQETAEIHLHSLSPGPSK
Hepatocyte growth factor receptor, sequence (P08581 whole entry): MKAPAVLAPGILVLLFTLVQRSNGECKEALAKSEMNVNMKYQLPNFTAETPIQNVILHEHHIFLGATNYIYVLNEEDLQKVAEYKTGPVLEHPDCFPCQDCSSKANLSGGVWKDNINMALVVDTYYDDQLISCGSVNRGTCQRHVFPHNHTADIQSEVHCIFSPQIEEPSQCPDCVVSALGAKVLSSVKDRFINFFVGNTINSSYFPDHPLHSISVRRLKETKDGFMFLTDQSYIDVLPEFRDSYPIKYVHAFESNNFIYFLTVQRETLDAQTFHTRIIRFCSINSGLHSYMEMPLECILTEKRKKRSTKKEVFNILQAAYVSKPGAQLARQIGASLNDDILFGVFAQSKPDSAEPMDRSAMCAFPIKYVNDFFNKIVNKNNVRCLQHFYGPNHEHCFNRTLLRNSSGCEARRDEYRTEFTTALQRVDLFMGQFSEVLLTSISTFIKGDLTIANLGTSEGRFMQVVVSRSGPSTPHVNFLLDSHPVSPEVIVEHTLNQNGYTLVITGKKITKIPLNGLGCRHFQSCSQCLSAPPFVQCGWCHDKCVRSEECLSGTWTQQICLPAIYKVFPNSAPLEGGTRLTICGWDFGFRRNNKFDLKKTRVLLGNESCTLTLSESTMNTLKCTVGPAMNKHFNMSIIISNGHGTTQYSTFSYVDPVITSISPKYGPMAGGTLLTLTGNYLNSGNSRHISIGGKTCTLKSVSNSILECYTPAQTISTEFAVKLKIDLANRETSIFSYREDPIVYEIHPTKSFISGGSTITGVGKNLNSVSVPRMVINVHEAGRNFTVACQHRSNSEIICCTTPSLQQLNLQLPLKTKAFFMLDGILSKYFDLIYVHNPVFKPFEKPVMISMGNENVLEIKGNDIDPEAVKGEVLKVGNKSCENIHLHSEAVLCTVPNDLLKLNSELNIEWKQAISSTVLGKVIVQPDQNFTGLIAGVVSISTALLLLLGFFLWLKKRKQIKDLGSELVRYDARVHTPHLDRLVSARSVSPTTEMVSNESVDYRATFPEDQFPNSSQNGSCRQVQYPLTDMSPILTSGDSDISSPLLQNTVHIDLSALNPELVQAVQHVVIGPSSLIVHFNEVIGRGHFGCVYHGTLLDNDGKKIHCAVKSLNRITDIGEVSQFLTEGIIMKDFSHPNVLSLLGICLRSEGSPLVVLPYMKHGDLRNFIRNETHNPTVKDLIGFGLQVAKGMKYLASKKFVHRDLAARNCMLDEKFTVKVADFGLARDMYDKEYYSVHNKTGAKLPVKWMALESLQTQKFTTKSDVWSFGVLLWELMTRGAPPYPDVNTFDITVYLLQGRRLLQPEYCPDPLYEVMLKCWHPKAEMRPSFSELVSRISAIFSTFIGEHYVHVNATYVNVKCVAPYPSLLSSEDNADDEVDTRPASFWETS
RAF proto-oncogene serine/threonine-protein kinase, sequence (P04049 whole entry): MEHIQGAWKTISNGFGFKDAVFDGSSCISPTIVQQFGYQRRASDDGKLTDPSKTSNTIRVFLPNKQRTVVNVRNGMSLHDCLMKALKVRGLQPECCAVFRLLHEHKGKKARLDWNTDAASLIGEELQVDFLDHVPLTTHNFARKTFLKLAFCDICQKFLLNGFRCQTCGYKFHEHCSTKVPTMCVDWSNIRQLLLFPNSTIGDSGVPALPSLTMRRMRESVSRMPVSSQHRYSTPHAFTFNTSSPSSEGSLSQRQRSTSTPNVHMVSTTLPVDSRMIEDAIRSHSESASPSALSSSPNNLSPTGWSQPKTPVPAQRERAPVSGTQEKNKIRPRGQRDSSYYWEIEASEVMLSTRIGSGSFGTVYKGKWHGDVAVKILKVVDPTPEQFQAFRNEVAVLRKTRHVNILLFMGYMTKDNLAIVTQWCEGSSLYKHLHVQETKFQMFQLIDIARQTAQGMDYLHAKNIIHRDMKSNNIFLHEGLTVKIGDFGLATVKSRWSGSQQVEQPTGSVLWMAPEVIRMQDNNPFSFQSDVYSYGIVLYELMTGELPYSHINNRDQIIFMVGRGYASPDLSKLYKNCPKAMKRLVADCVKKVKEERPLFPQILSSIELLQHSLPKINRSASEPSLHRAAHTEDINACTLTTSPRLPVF

SMILES: COc1ccc(-c2cc(-c3ccc(OC)c(OC)c3)c3c(N)c(C(=O)c4ccc(C)cc4)sc3n2)cc1OC
- IC50 [1]: 5870 nM
- IC50 (HepG2 [2]): 6 nM
- IC50 (PC-3 [3]): 19 nM
- IC50 (HepG2 [4]): 6 nM
- IC50 (Caco-2): 20 nM
- IC50 (MCF7 [5]): 10 nM
- IC50 (PC-3 [6]): 10 nM
- IC50 [7]: 7950 nM

SMILES: COCCOCCOCCOCCOCCOC(=O)c1cc(C(=O)OCCOCCOCCOCCOCCOC)cc(-n2cc(Cn3ncc4ccccc4c3=O)nn2)c1
- IC50 (MCF7 [8]): 8840 nM

SMILES: COc1cc(-c2cc(-c3ccc4ccccc4c3)nc(NN)c2C#N)ccc1O
- IC50 (PC-3 [25]): 55 nM
- IC50 (DU-145): 8.5 nM
- IC50 (MDA-MB-435): 96 nM

SMILES: CC1=NN(c2ccc([N+](=O)[O-])cc2[N+](=O)[O-])C(=O)/C1=C\c1cn(-c2ccccc2)nc1-c1cccc([N+](=O)[O-])c1
- IC50 (MCF7 [33]): 16500 nM

SMILES: CCOC(=O)c1ccc(NC(=O)c2ccc(NC(=O)CN3C(=O)S/C(=C\c4ccccc4)C3=O)cc2)cc1
- IC50 (HepG2 [34]): 11200 nM
- IC50 (HCT-116 [35]): 8990 nM
- IC50 (MCF7 [36]): 7100 nM

Now from value to molecule, other results behind:

- IC50 [9]: 230 nM
- IC50 (HepG2 [10]): 4100 nM
- IC50 (HCT-116 [11]): 2800 nM
- IC50 (MCF7 [12]): 10300 nM
SMILES: O=C(N/N=C/c1ccc(Cl)cc1)c1ccc(Nc2ncnc3sc4c(c23)CCCC4)cc1
- IC50 (HCT-116 [13]): 2800 nM
- IC50 (HepG2 [14]): 4100 nM
- IC50 (MCF7 [15]): 10300 nM

- IC50 [1]: 70 nM
SMILES: Cc1ccc2oc(CCCC(=O)Nc3ccc(S(=O)(=O)NC(=O)NC4CCCCC4)cc3)nc2c1
- IC50 (MCF7 [16]): 5500 nM

- IC50 [17]: 20 nM
- IC50 [18]: 2 nM
- IC50 [19]: 100 nM
- IC50 (A549): 100 nM
- IC50 (PC-3 [20]): 100 nM
- IC50 (HepG2 [21]): 100 nM
- IC50 (HCT-116 [22]): 100 nM
- IC50 (A-375): 100 nM
- IC50 (MCF7 [23]): 100 nM
- IC50 (MIA PaCa-2): 100 nM
- IC50 [24]: > 100000 nM
SMILES: O=C(CSc1nc2ccccc2c(=O)n1-c1ccc(Cl)cc1)Nc1ccc(-c2nc3ccccc3[nH]2)cc1

- GI50 (PC-9): 6000 nM
- GI50 (HCC827): 1300 nM
SMILES: NC(=O)CCn1cc(-c2ccc3ncnc(Nc4cc(O)c(F)cc4F)c3c2)nn1

- IC50 [1]: 4.8 nM
- IC50 [26]: 5.8 nM
SMILES: COCCOc1cc2ncnc(Nc3ccc(NC(=O)CC(=O)Nc4ccc(F)cc4)cc3F)c2c2c1OCCO2
- IC50 (MHCC97H): 15.7 nM
- IC50 [27]: 0.8 nM

- IC50 [28]: 340 nM
- IC50 (HCT-116 [29]): 3740 nM
- IC50 (HepG2 [30]): 3740 nM
- IC50 (MCF7 [31]): 5000 nM
- IC50 (HCT-116 [32]): 6770 nM
SMILES: C/C(=N\NC(=O)c1ccccc1O)c1ccc(NC(=O)CSc2nc3ccccc3c(=O)n2-c2ccccc2)cc1
